The record followed here is patent EP4477653A1 (Perha Pharmaceuticals, priority 2023, dated 2024).

The experiment deals with T1, human recombinant A3AR (expressed in HEK-293 cells) (Homo sapiens, UniProt P0DMS8).
T1 construct: host or cells: HEK-293 cells
T1 sequence (P0DMS8 1-318): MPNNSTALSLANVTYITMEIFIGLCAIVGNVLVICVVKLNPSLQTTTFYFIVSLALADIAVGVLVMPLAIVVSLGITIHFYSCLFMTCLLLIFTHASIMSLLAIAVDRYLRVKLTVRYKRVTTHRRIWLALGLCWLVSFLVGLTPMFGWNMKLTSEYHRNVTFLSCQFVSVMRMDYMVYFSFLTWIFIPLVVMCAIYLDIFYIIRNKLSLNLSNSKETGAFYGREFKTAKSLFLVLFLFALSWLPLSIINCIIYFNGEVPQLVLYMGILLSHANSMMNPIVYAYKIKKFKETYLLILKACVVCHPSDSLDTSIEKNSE
Put plainly: Adenosine receptors antagonism assay (Eurofins), [125I]-AB-MECA radioligand competition. Type of experiment: binding. As to conditions: [125I]-AB-MECA 0.15 nM, r.t., 120 min; IC50 from dose-response curves; read-out: Potency Class A3AR. For orientation: In a radioligand displacement assay an active substance lowers the binding of a labelled ligand.
For the compound `CCC(CC)Nc1cc(Nc2ccccn2)c2nnc(C(C)C)n2n1` [compound 46, N6-(1-ethylpropyl)-3-isopropyl-N8-(2-pyridyl)-[1,2,4]triazolo[4,3-b]pyridazine-6,8-diamine], the IC50 was below 1 nM.

For `CC(C)c1nnc2c(NCc3ccccc3)cc(N[C@H]3CCCOC3)nn12` [compound 22, N8-benzyl-3-isopropyl-N6-[(3S)-tetrahydropyran-3-yl]-[1,2,4]triazolo[4,3-b]pyridazine-6,8-diamine], the IC50 fell in the range of 10 to 100 nM.

Consider `CCC(CC)Nc1cc(Nc2cnccn2)c2nnc(C(C)C)n2n1` [compound 153, 3-isopropyl-N6-(pentan-3-yl)-N8-(pyrazin-2-yl)-[1,2,4]triazolo[4,3-b]pyridazine-6,8-diamine], for which the IC50 was below 1 nM.

In the case of `CCC(CC)Nc1cc(Nc2ccncc2)c2nnc(C3CC3)n2n1` [compound 174, 3-cyclopropyl-N6-(1-ethylpropyl)-N8-(4-pyridyl)-[1,2,4]triazolo[4,3-b]pyridazine-6,8-diamine], the IC50 is below 1 nM.

Turning to `CCC(CC)Nc1cc(Nc2cnccn2)c2nnc(C3CC3)n2n1` [compound 180, 3-cyclopropyl-N6-(pentan-3-yl)-N8-(pyrazin-2-yl)-[1,2,4]triazolo[4,3-b]pyridazine-6,8-diamine], the IC50 was below 1 nM.

As for `CCC(CC)Nc1cc(NCCc2cccnc2)c2nnc(C3CC3)n2n1` [compound 87, 3-cyclopropyl-N6-(1-ethylpropyl)-N8-[2-(3-pyridyl)ethyl]-[1,2,4]triazolo[4,3-b]pyridazine-6,8-diamine], the IC50 is below 1 nM.

`COCCCNc1cc(NCCCOC)c2nnc(-c3ccccc3)n2n1` [compound 109, N6,N8-bis(3-methoxypropyl)-3-phenyl-[1,2,4]triazolo[4,3-b]pyridazine-6,8-diamine]: the IC50 is 100 to 1000 nM.

Consider `CC(C)c1nnc2c(NCc3ccccc3)cc(NCCO)nn12` [compound 11, 2-[[8-(benzylamino)-3-isopropyl-[1,2,4]triazolo[4,3-b]pyridazin-6-yl]amino]ethanol], for which the IC50 is 100 to 1000 nM.

Take `c1ccc(CNc2cc(NCc3ccsc3)nn3c(C4CC4)nnc23)nc1` [compound 218, 3-cyclopropyl-N8-(pyridin-2-ylmethyl)-N6-(thiophen-3-ylmethyl)-[1,2,4]triazolo[4,3-b]pyridazine-6,8-diamine]: the IC50 lay within 1 to 10 nM.

As to `COCCCCCNc1cc(NCc2ccccc2)c2nnc(C(C)C)n2n1` [compound 16, N8-benzyl-3-isopropyl-N6-(5-methoxypentyl)-[1,2,4]triazolo[4,3-b]pyridazine-6,8-diamine], the IC50 lay in the range of 100 to 1000 nM.

As to `CC(C)c1nnc2c(NCc3ccccc3)cc(NCCC(=O)N(C)C)nn12` [compound 27, 3-[[8-(benzylamino)-3-isopropyl-[1,2,4]triazolo[4,3-b]pyridazin-6-yl]amino]-N,N-dimethyl-propanamide], the IC50 is 100 to 1000 nM.

On to `COCCCNc1cc(NCc2ccccc2)c2nnc(-c3ccccc3)n2n1` [compound 34, N8-benzyl-N6-(3-methoxypropyl)-3-phenyl-[1,2,4]triazolo[4,3-b]pyridazine-6,8-diamine], for which the IC50 lay in the range of 100 to 1000 nM.

On to `CCC(CC)Nc1cc(NCCc2ccccn2)c2nnc(C(C)C)n2n1` [compound 83, N6-(1-ethylpropyl)-3-isopropyl-N8-[2-(2-pyridyl)ethyl]-[1,2,4]triazolo[4,3-b]pyridazine-6,8-diamine], for which the IC50 is below 1 nM.

Consider `CCC(CC)Nc1cc(NCCc2ccccc2)c2nnc(C(C)C)n2n1` [compound 82, N6-(1-ethylpropyl)-3-isopropyl-N8-(2-phenylethyl)-[1,2,4]triazolo[4,3-b]pyridazine-6,8-diamine], for which the IC50 lay in the range of 1 to 10 nM.

With `CCC(CC)Nc1cc(N2Cc3ccccc3C2)c2nnc(C(C)C)n2n1` [compound 79, N-(1-ethylpropyl)-8-isoindolin-2-yl-3-isopropyl-[1,2,4]triazolo[4,3-b]pyridazin-6-amine], the IC50 was 100 to 1000 nM.

Take `CCC(CC)Nc1cc(NCCc2ccncc2)c2nnc(C3CC3)n2n1` [compound 88, 3-cyclopropyl-N6-(1-ethylpropyl)-N8-[2-(4-pyridyl)ethyl]-[1,2,4]triazolo[4,3-b]pyridazine-6,8-diamine]: the IC50 lay within 1 to 10 nM.

With `CCC(CC)Nc1cc(Nc2cccnc2OC)c2nnc(C3CC3)n2n1` [compound 184, 3-cyclopropyl-N8-(2-methoxypyridin-3-yl)-N6-(pentan-3-yl)-[1,2,4]triazolo[4,3-b]pyridazine-6,8-diamine], the IC50 fell in the range of 10 to 100 nM.

With `c1ccc(CNc2cc(NC3CCCCC3)nn3c(C4CC4)nnc23)nc1` [compound 200, N6-cyclohexyl-3-cyclopropyl-N8-(pyridin-2-ylmethyl)-[1,2,4]triazolo[4,3-b]pyridazine-6,8-diamine], the IC50 lay in the range of 1 to 10 nM.

For the compound `CCC(CC)Nc1cc(NCc2ncccn2)c2nnc(C(C)C)n2n1` [compound 92, N6-(1-ethylpropyl)-3-isopropyl-N8-(pyrimidin-2-ylmethyl)-[1,2,4]triazolo[4,3-b]pyridazine-6,8-diamine], the IC50 is 10 to 100 nM.

Turning to `CCC(CC)Nc1cc(NCCCc2cccnc2)c2nnc(C(C)C)n2n1` [compound 90, N6-(1-ethylpropyl)-3-isopropyl-N8-[3-(3-pyridyl)propyl]-[1,2,4]triazolo[4,3-b]pyridazine-6,8-diamine], the IC50 lay in the range of 1 to 10 nM.

Take `CCC(CC)Nc1cc(NCc2cccnn2)c2nnc(C3CC3)n2n1` [compound 216, 3-cyclopropyl-N6-(pentan-3-yl)-N8-(pyridazin-3-ylmethyl)-[1,2,4]triazolo[4,3-b]pyridazine-6,8-diamine]: the IC50 lay within 1 to 10 nM.

As for `CC[C@H](CO)Nc1cc(NCc2ccccc2)c2nnc(-c3ccccc3)n2n1` [compound 35, (2R)-2-[[8-(benzylamino)-3-phenyl-[1,2,4]triazolo[4,3-b]pyridazin-6-yl]amino]butan-1-ol], the IC50 lay within 10 to 100 nM.

`CCC(CC)Nc1cc(NCc2ccccn2)c2nnc(C3CC3)n2n1` [compound 62, 3-cyclopropyl-N6-(1-ethylpropyl)-N8-(2-pyridylmethyl)-[1,2,4]triazolo[4,3-b]pyridazine-6,8-diamine]: the IC50 is 1 to 10 nM.

Regarding `CCC(CC)CNc1cc(NCC(CC)CC)c2nnc(C(C)C)n2n1` [compound 167, N6,N8-bis(2-ethylbutyl)-3-isopropyl-[1,2,4]triazolo[4,3-b]pyridazine-6,8-diamine], the IC50 fell in the range of 1 to 10 nM.

On to `CC(C)(C)Nc1cc(NCc2ccccn2)c2nnc(C3CC3)n2n1` [compound 195, N6-(tert-butyl)-3-cyclopropyl-N8-(pyridin-2-ylmethyl)-[1,2,4]triazolo[4,3-b]pyridazine-6,8-diamine], for which the IC50 is 1 to 10 nM.

Take `CC[C@H](CO)Nc1nn2c(C(C)C)nnc2c(NCc2ccccc2)c1C` [compound 115, (2R)-2-[[8-(benzylamino)-3-isopropyl-7-methyl-[1,2,4]triazolo[4,3-b]pyridazin-6-yl]amino]butan-1-ol]: the IC50 was in the range of 100 to 1000 nM.

Consider `CCC(CC)Nc1cc(NCc2cc3ccccc3[nH]2)c2nnc(C(C)C)n2n1` [compound 78, N6-(1-ethylpropyl)-N8-(1H-indol-2-ylmethyl)-3-isopropyl-[1,2,4]triazolo[4,3-b]pyridazine-6,8-diamine], for which the IC50 fell in the range of 10 to 100 nM.

For `CCC(CC)Nc1cc(Nc2cncnc2)c2nnc(C3CC3)n2n1` [compound 178, 3-cyclopropyl-N6-(1-ethylpropyl)-N8-pyrimidin-5-yl-[1,2,4]triazolo[4,3-b]pyridazine-6,8-diamine], the IC50 was below 1 nM.

For `CC(C)c1nnc2c(NCc3ccccc3)cc(NCCC(N)=O)nn12` [compound 25, 3-[[8-(benzylamino)-3-isopropyl-[1,2,4]triazolo[4,3-b]pyridazin-6-yl]amino]propanamide], the IC50 is 100 to 1000 nM.

Take `CC(C)c1nnc2c(NCc3ccccc3)cc(N[C@@H]3CCCOC3)nn12` [compound 21, N8-benzyl-3-isopropyl-N6-[(3R)-tetrahydropyran-3-yl]-[1,2,4]triazolo[4,3-b]pyridazine-6,8-diamine]: the IC50 was in the range of 10 to 100 nM.

Consider `c1ccc(CNc2cc(NC3CCCC3)nn3c(C4CC4)nnc23)nc1` [compound 199, N6-cyclopentyl-3-cyclopropyl-N8-(pyridin-2-ylmethyl)-[1,2,4]triazolo[4,3-b]pyridazine-6,8-diamine], for which the IC50 lay in the range of 1 to 10 nM.

For `CCC(CC)Nc1cc(Nc2cncc(OC)c2)c2nnc(C(C)C)n2n1` [compound 160, 3-isopropyl-N8-(5-methoxypyridin-3-yl)-N6-(pentan-3-yl)-[1,2,4]triazolo[4,3-b]pyridazine-6,8-diamine], the IC50 is 1 to 10 nM.

Consider `CCC(CC)Nc1cc(NCc2cccnn2)c2nnc(C(C)C)n2n1` [compound 95, N6-(1-ethylpropyl)-3-isopropyl-N8-(pyridazin-3-ylmethyl)-[1,2,4]triazolo[4,3-b]pyridazine-6,8-diamine], for which the IC50 fell in the range of 1 to 10 nM.

Regarding `CCC(CC)Nc1cc(Nc2ccnnc2)c2nnc(C3CC3)n2n1` [compound 176, 3-cyclopropyl-N6-(pentan-3-yl)-N8-(pyridazin-4-yl)-[1,2,4]triazolo[4,3-b]pyridazine-6,8-diamine], the IC50 is 1 to 10 nM.

Regarding `COCCCNc1cc(NCCCOC)c2nnc(C3CC3)n2n1` [compound 110, 3-cyclopropyl-N6,N8-bis(3-methoxypropyl)-[1,2,4]triazolo[4,3-b]pyridazine-6,8-diamine], the IC50 lay within 10 to 100 nM.

As to `CCC(CC)Nc1cc(Nc2ccc(OC)cn2)c2nnc(C(C)C)n2n1` [compound 155, 3-isopropyl-N8-(5-methoxypyridin-2-yl)-N6-(pentan-3-yl)-[1,2,4]triazolo[4,3-b]pyridazine-6,8-diamine], the IC50 was below 1 nM.
